Laboratory results: ChEMBL document CHEMBL3217717, “Synthesis and antiproliferative activity of novel erythromycin derivatives” (Medchemcomm, 2010)

Key:
[1] = Cell cycle arrest in human HT1080 cells assessed as accumulation at G2/M phase at 2 times IC50 after 24 hrs by propidium iodide staining-based flow cytometric analysis (reference value: 23.71%); type: functional; details: HT-1080
[2] = Cell cycle arrest in human HT1080 cells assessed as accumulation at G2/M phase at 0.5 times IC50 after 24 hrs by propidium iodide staining-based flow cytometric analysis (reference value: 23.71%); type: functional; details: HT-1080
[3] = Cell cycle arrest in human HT1080 cells assessed as accumulation at S phase at IC50 after 48 hrs by propidium iodide staining-based flow cytometric analysis (reference value: 15.11%); type: functional; details: HT-1080
[4] = Cell cycle arrest in human HT1080 cells assessed as accumulation at S phase at 2 times IC50 after 24 hrs by propidium iodide staining-based flow cytometric analysis (reference value: 21.01%); type: functional; details: HT-1080
[5] = Cell cycle arrest in human HT1080 cells assessed as accumulation at G2/M phase at 0.5 times IC50 after 48 hrs by propidium iodide staining-based flow cytometric analysis (reference value: 31.39%); type: functional; details: HT-1080
[6] = Cell cycle arrest in human HT1080 cells assessed as accumulation at G0/G1 phase at 2 times IC50 after 24 hrs by propidium iodide staining-based flow cytometric analysis (reference value: 49.18%); type: functional; details: HT-1080
[7] = Cell cycle arrest in human HT1080 cells assessed as accumulation at subG1 phase at 0.5 times IC50 after 48 hrs by propidium iodide staining-based flow cytometric analysis (reference value: 1.86%); type: functional; details: HT-1080
[8] = Cell cycle arrest in human HT1080 cells assessed as accumulation at G0/G1 phase at 2 times IC50 after 48 hrs by propidium iodide staining-based flow cytometric analysis (reference value: 41.60%); type: functional; details: HT-1080
[9] = Cell cycle arrest in human HT1080 cells assessed as accumulation at G0/G1 phase after 24 hrs by propidium iodide staining-based flow cytometric analysis; type: functional; details: HT-1080
[10] = Cell cycle arrest in human HT1080 cells assessed as accumulation at G2/M phase at IC50 after 24 hrs by propidium iodide staining-based flow cytometric analysis (reference value: 23.71%); type: functional; details: HT-1080
[11] = Cell cycle arrest in human HT1080 cells assessed as accumulation at S phase at 2 times IC50 after 48 hrs by propidium iodide staining-based flow cytometric analysis (reference value: 15.11%); type: functional; details: HT-1080
[12] = Cell cycle arrest in human HT1080 cells assessed as accumulation at subG1 phase at 2 times IC50 after 24 hrs by propidium iodide staining-based flow cytometric analysis (reference value: 0.82%); type: functional; details: HT-1080
[13] = Cell cycle arrest in human HT1080 cells assessed as accumulation at G0/G1 phase at 0.5 times IC50 after 48 hrs by propidium iodide staining-based flow cytometric analysis (reference value: 41.60%); type: functional; details: HT-1080
[14] = Cell cycle arrest in human HT1080 cells assessed as accumulation at G0/G1 phase at IC50 after 48 hrs by propidium iodide staining-based flow cytometric analysis (reference value: 41.60%); type: functional; details: HT-1080
[15] = Cell cycle arrest in human HT1080 cells assessed as accumulation at S phase at 0.5 times IC50 after 24 hrs by propidium iodide staining-based flow cytometric analysis (reference value: 21.01%); type: functional; details: HT-1080
[16] = Cell cycle arrest in human HT1080 cells assessed as accumulation at G2/M phase at 2 times IC50 after 48 hrs by propidium iodide staining-based flow cytometric analysis (reference value: 31.39%); type: functional; details: HT-1080
[17] = Cell cycle arrest in human HT1080 cells assessed as accumulation at S phase at IC50 after 24 hrs by propidium iodide staining-based flow cytometric analysis (reference value: 21.01%); type: functional; details: HT-1080
[18] = Cell cycle arrest in human HT1080 cells assessed as accumulation at S phase at 0.5 times IC50 after 48 hrs by propidium iodide staining-based flow cytometric analysis (reference value: 15.11%); type: functional; details: HT-1080
[19] = Cytotoxicity against human HT1080 cells assessed as growth inhibition after 48 hrs by MTT assay; type: functional, cell-based; details: HT-1080, 48 h
[20] = Cell cycle arrest in human HT1080 cells assessed as accumulation at subG1 phase at IC50 after 24 hrs by propidium iodide staining-based flow cytometric analysis (reference value: 0.82%); type: functional; details: HT-1080
[21] = Cell cycle arrest in human HT1080 cells assessed as accumulation at subG1 phase at 2 times IC50 after 48 hrs by propidium iodide staining-based flow cytometric analysis (reference value: 1.86%); type: functional; details: HT-1080
[22] = Cell cycle arrest in human HT1080 cells assessed as accumulation at G2/M phase at IC50 after 48 hrs by propidium iodide staining-based flow cytometric analysis (reference value: 31.39%); type: functional; details: HT-1080
[23] = Cell cycle arrest in human HT1080 cells assessed as accumulation at subG1 phase at IC50 after 48 hrs by propidium iodide staining-based flow cytometric analysis (reference value: 1.86%); type: functional; details: HT-1080
[24] = Cell cycle arrest in human HT1080 cells assessed as accumulation at G0/G1 phase at 0.5 times IC50 after 24 hrs by propidium iodide staining-based flow cytometric analysis (reference value: 49.18%); type: functional; details: HT-1080
[25] = Cell cycle arrest in human HT1080 cells assessed as accumulation at subG1 phase at 0.5 times IC50 after 24 hrs by propidium iodide staining-based flow cytometric analysis (reference value: 0.82%); type: functional; details: HT-1080
[26] = system: KB; assay: Cytotoxicity against human KB cells assessed as growth inhibition after 48 hrs by MTT assay; type: functional, cell-based
[27] = Cytotoxicity against human SGC7901 cells assessed as growth inhibition after 48 hrs by MTT assay; type: functional, cell-based; details: SGC-7901, 48 h
[28] = Cell cycle arrest in human HT1080 cells assessed as accumulation at G0/G1 phase at IC50 after 24 hrs by propidium iodide staining-based flow cytometric analysis (reference value: 49.18%); type: functional; details: HT-1080
[29] = Cell cycle arrest in human HT1080 cells assessed as accumulation at G0/G1 phase after 24 to 48 hrs by propidium iodide staining-based flow cytometric analysis; type: functional; details: HT-1080
[30] = Cell cycle arrest in human HT1080 cells assessed as accumulation at G0/G1 phase at 0.5 to 2 times IC50 by propidium iodide staining-based flow cytometric analysis; type: functional; details: HT-1080, TDE = time-dependent effect

Row | SMILES | Activity [1] | Activity [2] | Activity [3] | Activity [4] | Activity [5] | Activity [6] | Activity [7] | Activity [8] | Activity [10] | Activity [11] | Activity [12] | Activity [13] | Activity [14] | Activity [15] | Activity [16] | Activity [17] | Activity [18] | IC50 [19] | IC50 [26] | IC50 [27] | also measured
1 | CC[C@H]1OC(=O)[C@H](C)[C@@H](O[C@H]2C[C@@](C)(OC)[C@@H](O)[C@H](C)O2)[C@H](C)[C@@H](O[C@@H]2O[C@H](C)C[C@H](N(C)CCN(C)[C@H]3C[C@@H](C)O[C@@H](O[C@@H]4[C@@H](C)[C@H](O[C@H]5C[C@@](C)(OC)[C@@H](O)[C@H](C)O5)[C@@H](C)C(=O)O[C@H](CC)[C@@](C)(O)[C@H](O)[C@@H](C)/C(=N\O)[C@H](C)C[C@@]4(C)O)[C@@H]3O)[C@H]2O)[C@](C)(O)C[C@@H](C)/C(=N/O)[C@H](C)[C@@H](O)[C@]1(C)O | 12.5% | 14.4% | 9.35% | 11.1% | 10.1% | 66.6% | 1.34% | 48.7% | 11.5% | 14.8% | 8.14% | 80% | 77.3% | 16.5% | 17.9% | 13.9% | 6.94% | 8.6 µM | 6.2 µM | 21.7 µM | Activity [9]: Dose-dependent effect; Activity [20]: 2.01%; Activity [21]: 15.7%; Activity [22]: 10.8%; Activity [23]: 1.34%; Activity [24]: 66%; Activity [25]: 1.41%; Activity [28]: 71.2%
2 | CC[C@H]1OC(=O)[C@H](C)[C@@H](O[C@H]2C[C@@](C)(OC)[C@@H](O)[C@H](C)O2)[C@H](C)[C@@H](O[C@@H]2O[C@H](C)C[C@H](N(C)CCN(C)[C@H]3C[C@@H](C)O[C@@H](O[C@@H]4[C@@H](C)[C@H](O[C@H]5C[C@@](C)(OC)[C@@H](O)[C@H](C)O5)[C@@H](C)C(=O)O[C@H](CC)[C@@](C)(O)[C@H](O)[C@@H](C)/C(=N\O)[C@H](C)C[C@@]4(C)OC)[C@@H]3O)[C@H]2O)[C@](C)(OC)C[C@@H](C)/C(=N/O)[C@H](C)[C@@H](O)[C@]1(C)O | 11.9% | 17.4% | 12.6% | 10.8% | 15.3% | 75.1% | 0.75% | 74.5% | 18.5% | 11.5% | 0.85% | 67.6% | 71.9% | 18.1% | 10.1% | 15.9% | 13.7% | 5.3 µM | 4.4 µM | 7.8 µM | Activity [29]: Dose-dependent effect; Activity [20]: 0.77%; Activity [21]: 2.47%; Activity [22]: 12.8%; Activity [23]: 0.77%; Activity [24]: 62%; Activity [25]: 0.6%; Activity [30]: tde; Activity [28]: 62.7%
3 | CC[C@H]1OC(=O)[C@H](C)[C@@H](O[C@H]2C[C@@](C)(OC)[C@@H](O)[C@H](C)O2)[C@H](C)[C@@H](O[C@@H]2O[C@H](C)C[C@H](N(C)CCN(C)[C@H]3C[C@@H](C)O[C@@H](O[C@@H]4[C@@H](C)[C@H](O[C@H]5C[C@@](C)(OC)[C@@H](O)[C@H](C)O5)[C@@H](C)C(=O)O[C@H](CC)[C@@](C)(O)[C@H](O)[C@@H](C)C(=O)[C@H](C)C[C@@]4(C)OC)[C@@H]3O)[C@H]2O)[C@](C)(O)C[C@@H](C)[C@H](N)[C@H](C)[C@@H](O)[C@]1(C)O | – | – | – | – | – | – | – | – | – | – | – | – | – | – | – | – | – | 17.8 µM | 26.4 µM | 57.8 µM | –
4 | CC[C@H]1OC(=O)[C@H](C)[C@@H](O[C@H]2C[C@@](C)(OC)[C@@H](O)[C@H](C)O2)[C@H](C)[C@@H](O[C@@H]2O[C@H](C)C[C@H](N(C)CCN(C)[C@H]3C[C@@H](C)O[C@@H](O[C@@H]4[C@@H](C)[C@H](O[C@H]5C[C@@](C)(OC)[C@@H](O)[C@H](C)O5)[C@@H](C)C(=O)O[C@H](CC)[C@@](C)(O)[C@H](O)[C@@H](C)/C(=N\OCc5ccccc5)[C@H](C)C[C@@]4(C)OC)[C@@H]3O)[C@H]2O)[C@](C)(OC)C[C@@H](C)/C(=N/OCc2ccccc2)[C@H](C)[C@@H](O)[C@]1(C)O | – | – | – | – | – | – | – | – | – | – | – | – | – | – | – | – | – | 9.5 µM | 7.6 µM | 26.5 µM | –
5 | CC[C@H]1OC(=O)[C@H](C)[C@@H](O)[C@H](C)[C@@H](O[C@@H]2O[C@H](C)C[C@H](N(C)C(=O)CN(C)[C@H]3C[C@@H](C)O[C@@H](O[C@@H]4[C@@H](C)[C@H](O[C@H]5C[C@@](C)(OC)[C@@H](O)[C@H](C)O5)[C@@H](C)C(=O)O[C@H](CC)[C@@](C)(O)[C@H](O)[C@@H](C)/C(=N\OCOCCOC)[C@H](C)C[C@@]4(C)O)[C@@H]3O)[C@H]2O)[C@](C)(OC)C[C@@H](C)C(=O)[C@H](C)[C@@H](O)[C@]1(C)O | – | – | – | – | – | – | – | – | – | – | – | – | – | – | – | – | – | > 100 µM | > 100 µM | > 100 µM | –
